Experimental data as given in patent US20220313678A1 (priority 2021, published 2022).
Read-outs that look alike come from different tables or passages of the source.

How the values were obtained:
[1] = 1:1 v:v, about 25° C., about 24 hours
Procedure: Each of Samples 1-8 is prepared by and measured according to the following method. Liquid nicotine is added at the target nicotine concentration to a vessel containing an oil phase. The oil phase containing nicotine is mixed with an aqueous phase at a one-to-one volume ratio (v:v) using an orbital shaker at about 100 rotations per minute (rpm) for about 5 minutes to prepare a nicotine oil: aqueous phase mix. The nicotine oil: aqueous phase mix is allowed to sit at room temperature (about 25° C.) for about 24 hours. A concentration of nicotine in each of the oil phase and the nicotine phase is measured using a liquid chromatography method. A partition coefficient, which is a ratio concentrations of a compound (i.e., nicotine) in two immiscible solvents (i.e., an oil phase and an aqueous phase) at equilibrium, is calculated for each sample. The partition coefficient is a comparison of the solubilities of the nicotine in the two liquid phases.
Samples 1-6 include MCT oil (CAS No. 73398-61-5) as an oil phase. Sample 7 includes triacetin oil as an oil phase. Sample 8 includes triolein oil as an oil phase. Sample 1 includes deionized (DI) water as an aqueous phase. Sample 2 includes basified DI water having a pH of 7.4 as an aqueous phase. Sample 3 includes artificial saliva having a pH of 6.8 as an aqueous phase. Artificial saliva simulates mucus conditions. […]

[2] = free base (non-protonated); cited from earlier work

## CN1CCCC1c1cccnc1 (stereo not drawn) [nicotine, 3-(1-methyl-2-pyrrolidinyl) pyridine]
[1]; Samples 1-4: MCT oil vs DI water, basified DI water pH 7.4, artificial saliva pH 6.8, acidified DI water pH 2
  partition coefficient (oil phase : aqueous phase): greater than 1
[1]; Samples 5-8: MCT, triacetin or triolein oil vs 1M acetic acid pH adjuster pH 2
  partition coefficient (oil phase : aqueous phase): less than 1
[2]
  pKa value: about 8
